A word on the pEC50: it is −log10 of the EC50, conventionally taken in molar units.

Consider one molecule from US20080193943A1, “Companion diagnostic assays for cancer therapy” (ABBOTT LABORATORIES, priority 2006, published 2008).

pEC50: −log10 of the molar value.

In assay [1] the test system is solid tumors. The note with it: from Oltersdorf, Nature 435: 677-681, 2005; cited from earlier work.
For assay [2], the system named is SCLC and lymphoma cell lines. To be noted: from Oltersdorf, Nature 435: 677-681, 2005; cited from earlier work.
Assay [3] concerns NCI-H209. The assay can be described thus: sensitivity of SCLC cell line to ABT-737. The assay is classed as cell-based. To be noted: Homo sapiens, read-out: sensitivity to ABT-737 (EC50 class). On the procedure:
(§1) The following SCLC cell lines were obtained from ATCC (Manassis, Va.): NCI-H889, NCI-H1963, NCI-H1417, NCI-H146, NCI-H187, DMS53, NCI-H510, NCI-H1209, NCI-H526, NCI-H211, NCI-H345, NCI-H524, NCI-H69, NCI-H748, DMS79, NCI-H711, SHP77, NCI-446, NCI-H1048, NCI-H82, NCI-H196, SW1271, H69AR. All cells were cultured in the ATCC recommended media at 37° C. in a humidified atmosphere containing 5% CO2. Genomic DNA was isolated from the cell lines using a DNAeasy kit (Qiagen, Valencia, Calif.).
(§2) The 23 SCLC cell lines were tested for sensitivity to ABT-737 using the procedure described in Oltersdorf, T., “An inhibitor of Bcl-2 family proteins induces regression of solid tumours”, Nature, 435: 677-681, 2005, with a cell line classified as sensitive if its EC50<1 μM and as resistant if its EC50>10 μM. The sensitive cell line group consisted of NCI-H889, NCI-H1963, NCI-H1417, NCI-H146, NCI-H187, DMS 53, NCI-H510, NCI-H209, NCI-H526, NCI-H211, NCI-H345, and NCI-H524 and the resistant cell line group was comprised of NCI-H82, NCI-H196, SW1271, and H69AR.

Assay [4] deals with NCI-H1417. The assay can be described thus: sensitivity of SCLC cell line to ABT-737. The note with it: Homo sapiens, read-out: sensitivity to ABT-737 (EC50 class). The assay is classed as cell-based. On the procedure:
as §1, §2

Assay [5] concerns DMS 53. The assay can be described thus: sensitivity of SCLC cell line to ABT-737. Format: cell-based. The note with it: Homo sapiens; DMS 53 SCLC cell line; read-out: sensitivity to ABT-737 (EC50 class). On the procedure: as §1, §2
Assay [6] deals with SW1271. Briefly: sensitivity of SCLC cell line to ABT-737. The assay is classed as cell-based. The note with it: Homo sapiens, read-out: sensitivity to ABT-737 (EC50 class). On the procedure:
as §1, §2

In assay [7] the test system is NCI-H510. Briefly: sensitivity of SCLC cell line to ABT-737. Format: cell-based. The note with it: Homo sapiens, read-out: sensitivity to ABT-737 (EC50 class). On the procedure: as §1, §2
Assay [8] concerns NCI-H889. Briefly: sensitivity of SCLC cell line to ABT-737. The assay is classed as cell-based. The note with it: Homo sapiens, read-out: sensitivity to ABT-737 (EC50 class). On the procedure: as §1, §2
The subject of assay [9] is H69AR. Briefly: sensitivity of SCLC cell line to ABT-737. The assay is classed as cell-based. To be noted: Homo sapiens, read-out: sensitivity to ABT-737 (EC50 class). On the procedure:
as §1, §2

Assay [10] has as its system NCI-H524. Briefly: sensitivity of SCLC cell line to ABT-737. The note with it: Homo sapiens, read-out: sensitivity to ABT-737 (EC50 class). The assay is classed as cell-based. On the procedure: as §1, §2
In assay [11] the test system is NCI-H1963. Briefly: sensitivity of SCLC cell line to ABT-737. The assay is classed as cell-based. To be noted: Homo sapiens, read-out: sensitivity to ABT-737 (EC50 class). The procedure:
as §1, §2

For assay [12], the system named is NCI-H146. Briefly: sensitivity of SCLC cell line to ABT-737. The assay is classed as cell-based. The note with it: Homo sapiens, read-out: sensitivity to ABT-737 (EC50 class). The procedure:
as §1, §2

The test system of assay [13] is NCI-H526. Briefly: sensitivity of SCLC cell line to ABT-737. The assay is classed as cell-based. To be noted: Homo sapiens, read-out: sensitivity to ABT-737 (EC50 class). The procedure: as §1, §2
Assay [14] deals with NCI-H196. Briefly: sensitivity of SCLC cell line to ABT-737. The assay is classed as cell-based. To be noted: Homo sapiens, read-out: sensitivity to ABT-737 (EC50 class). The procedure:
as §1, §2

Assay [15] relates to NCI-H187. The assay can be described thus: sensitivity of SCLC cell line to ABT-737. Format: cell-based. To be noted: Homo sapiens, read-out: sensitivity to ABT-737 (EC50 class). On the procedure:
as §1, §2

Assay [16] concerns NCI-H345. The assay can be described thus: sensitivity of SCLC cell line to ABT-737. Format: cell-based. The note with it: Homo sapiens, read-out: sensitivity to ABT-737 (EC50 class). The procedure: as §1, §2
Assay [17] relates to NCI-H211. The assay can be described thus: sensitivity of SCLC cell line to ABT-737. Format: cell-based. The note with it: Homo sapiens, read-out: sensitivity to ABT-737 (EC50 class). The procedure: as §1, §2
In assay [18] the test system is NCI-H82. Briefly: sensitivity of SCLC cell line to ABT-737. The note with it: Homo sapiens, read-out: sensitivity to ABT-737 (EC50 class). The assay is classed as cell-based. The procedure:
as §1, §2

`CN(C)CC[C@H](CSc1ccccc1)Nc1ccc(S(=O)(=O)NC(=O)c2ccc(N3CCN(Cc4ccccc4-c4ccc(Cl)cc4)CC3)cc2)cc1[N+](=O)[O-]` [ABT-737, N-(4-(4-((4′-chloro(1,1′-biphenyl)-2-yl)methyl)piperazin-1-yl)benzoyl)-4-(((1R)-3-(dimethylamino)-1-((phenylsulfanyl)methyl)propyl)amino)-3-nitrobenzenesulfonamide]: in [1], the “effect on solid tumors” value is “induce regression of solid tumors”. Besides, in [2], the “potency against a diverse panel of human cancer cell lines” value is “selective potency against SCLC and lymphoma cell lines”. Besides, the pEC50 in [3] was more than 6.00; in assay [4], more than 6.00; in assay [5], more than 6.00; in assay [6], less than 5.00; in assay [7] it was more than 6.00; in assay [8], more than 6.00. Also, the pEC50 in [9] was less than 5.00; in assay [10], more than 6.00; in [11], more than 6.00; in assay [12], more than 6.00; in assay [13] it was more than 6.00; in assay [14], less than 5.00. The pEC50 was more than 6.00 in [15], more than 6.00 in assay [16], more than 6.00 in [17] and less than 5.00 in [18].
